According to patent publication US20070258986A1, “Targeted Delivery System for Bioactive Agents” (Govt of the US as represented by the secretary,, priority 2003, published 2007):

Key:
[1] = biological target: T1, Y289L GalT (Bos taurus, UniProt P08037, Y289L); assay: Labeling of the O-GlcNAc peptide with ketone analogue 1 by mutant Y289L GalT (LC-MS); type: biochemical, bovine; conditions: peptide TAPTS(O-GlcNAc)TIAPG 10 μM, analogue 1 1 mM, 6 h at 4° C.
T1 construct: the catalytic domain of GalT has a tyrosine exchanged with another amino acid; made in house
T1 sequence (P08037 130-402 Y289L limits assumed): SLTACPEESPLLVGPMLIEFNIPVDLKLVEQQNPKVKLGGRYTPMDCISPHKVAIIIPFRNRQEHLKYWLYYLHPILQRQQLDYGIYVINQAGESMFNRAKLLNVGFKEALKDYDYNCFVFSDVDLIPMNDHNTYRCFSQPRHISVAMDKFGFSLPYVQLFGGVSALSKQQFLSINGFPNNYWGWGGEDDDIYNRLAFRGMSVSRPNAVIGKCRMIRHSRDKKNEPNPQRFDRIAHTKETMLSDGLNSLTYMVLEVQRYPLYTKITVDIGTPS
Protocol: Labeling of the O-GlcNAc Peptide: The peptide TAPTS(O-GlcNAc)TIAPG (10 μM was dissolved in 25 mM MOPS buffer, pH 6.7 containing 5 mM MnCl2 and 8 μM reference peptide (ThermoFinnigan, San Jose, Calif.). Ketone analogue 1 and mutant Y289L GalT were added to final concentrations of 1 mM and 100 ng/μL, respectively. Prior to enzyme addition, an aliquot of the reaction was removed as an initial time point for LC-MS analysis. Reactions were incubated at 4° C. for 6 h, after which an aliquot of the reaction mixture was removed for product analysis by LC-MS. The remainder of the reaction was diluted 5-fold into PBS (final concentration: 10.1 mM Na2HPO4, 1.76 mM KH2 HPO4, 137 mM NaCl, 2.7 mM KCl, pH 6.7), and N-(aminooxyacetyl)-N′-(D-biotinoyl) hydrazine (Molecular Probes, Eugene, Oreg.) was added to a final concentration of 12 mM. After 8 h at 25° C., the extent of biotin-oxime product was measured by LC-MS. […] Labeling reactions with wild-type GalT were performed identically, with the exception that reactions were incubated at 37° C. for 12 h. […]
For the aminooxy biotin reaction, formation of the oxime product was monitored using an extracted ion chromatogram within the mass range 1319.0-1321.0 m/z and 1633.0-1635.5 m/z, which was generated post-acquisition via the Xcalibur™ software. […]

[2] = biological target: T1, Y289L GalT; assay: Labeling of O-GlcNAc glycosylated CREB protein with analogue 1 and Y289L GalT, aminooxy biotin, streptavidin-HRP blot; type: biochemical, bovine; conditions: recombinant CREB from Sf9 cells, analogue 1 1 mM, 12 h at 4° C., then aminooxy biotin
Protocol: Labeling of CREB protein: Recombinant O-GlcNAc glycosylated CREB was generated by coexpression of CREB with O-GlcNAc glycosyltransferase in Sf9 cells as described previously (Lamarre-Vincent et al., 2003). 500 ng of CREB in 20 mM HEPES pH 7.9, 100 mM KCl, 0.2 mM EDTA, 15% glycerol was added to 50 mM MOPS pH 6.45 containing 5 mM MnCl2 and 0.25 mU/μL alkaline phosphatase (Unverzagt et al., 1990). Analogue 1 and Y289L GalT were then added to final concentrations of 1 mM and 40 ng/μL, respectively. Control reactions without enzyme or analogue 1 were treated identically. Following incubation at 12 h at 4° C., the reactions were diluted 5-fold into PBS containing protease inhibitors (5 μg/mL pepstatin, 5 μg/mL chymostatin, 20/μg/mL leupeptin, 20 μg/mL aprotinin, 20 μg/mL antipain, 0.2 mM PMSF). Aminooxy biotin was added to a final concentration of 2 mM, and the biotinylation reactions were incubated with gentle shaking for 12 h at 37° C. Reactions were aliquoted for analysis and stopped by boiling in SDS-PAGE loading dye. Proteins were resolved by 10% SDS-PAGE, electrophoretically transferred to nitrocellulose, and probed with streptavidin-HRP. […]

In the case of `CC(=O)C[C@H]1[C@@H](OP(=O)(O)OP(=O)(O)OC[C@H]2O[C@@H](n3ccc(=O)[nH]c3=O)[C@H](O)[C@@H]2O)O[C@H](CO)[C@H](O)[C@@H]1O.N.N` [analogue 1, Uridine 5′-diphospho-2-acetonyl-2deoxy-α-D-galactopyranose diammonium salt], the “conversion of the peptide to the ketone-labeled product” value [1] is reported as “complete conversion”, the “labeling of glycosylated CREB (chemiluminescence)” value ([2]; diammonium salt) is reported as “Strong, selective labeling” and the “labeling of glycosylated CREB (chemiluminescence)” value ([2]; listed as 1, diammonium salt) is reported as “Strong labeling”.
